Results taken from patent US6753005B1, “Method for tissue perfusion” (Direct Therapeutics, Inc., priority 1997, dated 2004).
“Also recorded” adds a separate entry of the source. Where two headings read alike, the source gives them in different places. Marks after values point to notes of the source that are not given here.

Columns and labels:
normal feline brain = experiment: Normal feline brain model, direct intra-tissue injection; details: for Gross Findings: lesion size: 2 weeks
Procedure: Mongrel cats weighing 2.5-3.0 kg were obtained from Liberty Research, Waverly, N.Y. Animals were anaesthetized using intramuscular acepromazine at 0.1 mg/kg, followed by 0-30 mg total dose of ketamine. A small incision was made over and extending posteriorly from the coronal suture. A 3 mm burr hole was made 0.75 cm posterior to the coronal suture and 0.75 cm lateral to the midline. Using a stereotactic frame, solutions were injected at a depth of 0.75 cm in the area of the sensory cortex. The burr hole was closed with bone wax and the skin closed with a skin clip. Doses of carmustine between 5 and 20 mg were administered in dehydrated alcohol volumes of between 0.05-0.4 ml. Two weeks post injection animals were sacrificed, the brain removed in toto and fixed in 10% buffered formalin and the brain examined grossly for lesions at the site of injection. Solutions injected consisted of an ethanol solvent vehicle alone, or containing varying concentrations of carmustine.

Walker 256 tumors = details: for Tumor Free at Time of Death: number of animals
Procedure: Tumor fragments derived from serially transplanted Walker 256 tumors were prepared and transplanted subcutaneously into female Harlan Sprague Dawley rats. Once the tumors reached appropriate size, animals were randomized into treatment groups of 5 or 6 animals and an untreated control group of 10 animals. Tumor volume for each animal was calculated using the formula: volume=(I×w2)/2. Observations included daily visual observation of each animal's general health, tumor measurements three times per week and weight every week. These measurements continued until: efficacy was apparent, the animal was terminal, the tumor became necrotic, tumor interfered with the animal's ability to eat or drink, or ten weeks beyond commencement of dosing.
Fifty rats bearing tumors ranging from 550 to 1634 mm^3 were randomly divided into eight treatment groups and 2 control groups. The following treatments were respectively administered to the eight treatment groups: […]

normal canine prostate = experiment: Normal canine prostate model, intraprostatic injection
Procedure: Random-source adult male canines were used in this experiment.
Body surface area (m2) was calculated for each animal using published tables.
On the day of surgery, the animals were preanesthetized with acepromazine (0.22 mg/kg) and atropine (0.05 mg/kg) intramuscularly. General anesthesia was induced with intravenous thiopental sodium (20-25 mg/kg) and, following orotracheal intubation, was maintained with a 0.5-2.0% halothane-oxygen mixture given through a semi-closed circle system. Perioperative antibiotics consisted of intravenous gentamicin (3 mg/kg) on the day of surgery and daily intramuscular gentamicin (3 mg/kg) for seven days following surgery.
In each animal, an 8 French urinary catheter was passed per urethra into the bladder, and the bladder was filled with normal saline. A diagnostic Aloka Echo SSD650 ultrasound machine with a UST 664 5/7.5 MHZ biplanar linear array transrectal probe (Wallingford, Conn.) was used to determine the maximal axial (transverse) width, height, and midline sagittal (longitudinal) length. The length was measured in the midline from the distal most aspect of the apex to the cephalad most portion of the gland. The volume was then determined using the following formula: length×width×½ height. A lower abdominal midline incision was created, and the peritoneal cavity was entered. The bladder and prostate were exposed and the periprostatic fat was carefully dissected off of the base of the gland. Using TRUS imaging of the prostate as well as direct visualization through the peritoneotomy a three inch 20 gauge spinal needle connected to a standard 10-cc luer-lock syringe containing the appropriate aliquot for injection was guided into the base of the right lobe of the prostate. The needle tip was localized within the prostatic parenchyma with ultrasound guidance and appropriately positioned.
Animals were randomly divided into subgroups. Animals A1 and A2 received a volume of dehydrated ethanol equal to 100% of the measured prostate volume while the remaining animals received a volume of 98% dehydrated ethanol equal to 50% of the total gland volume as determined by TRUS imaging. The animals received escalating doses of Carmustine dissolved in dehydrated ethanol: A1 and A2 2 mg/ml; B1 and B2, 5 mg/ml; C1 and C2 12.5 mg/ml; D1 and D2 18 mg/ml; and E1 and E2, 25 mg/ml. All animal subgroups were injected on separate days under general anesthesia through a midline peritoneotomy approach using TRUS guidance for needle placement. The needle was initially positioned at the ventral aspect of the apex of the gland and then withdrawn from apex to base during the injection. The needle was then repositioned toward the dorsal aspect of the gland at the apex and withdrawn toward the base during the injection so that as much of the parenchyma could be covered as possible.
Fourteen days following injection all animals underwent repeat TRUS imaging of the prostate gland under general anesthesia and were then euthanized by exsanguination under deep general anesthesia. The bladders and prostates were excised enbloc and fixed in formalin. If there was any evidence of perirectal inflammation or suspicion of pathology a section of the rectum was removed for pathologic examination. After adequate tissue fixation in formalin, the prostate glands were step sectioned and the volume of the prostate parenchyma affected (cm3) was calculated and quantitated based on the measured length, height and thickness of individual step sections of the gland. The volumes were then added together resulting in a quantification of the total parenchymal volume affected on a prostate gland for prostate gland basis. The tissue was then submitted for histopathologic interpretation.

[1] = 0.05 ml ethanol + 5 mg carmustine (100 mg/ml), 1 cat
[2] = 0.05 ml ethanol + 20 mg carmustine (400 mg/ml), 1 cat
[3] = 0.1 ml ethanol + 10 mg carmustine (100 mg/ml), 1 cat
[4] = 0.2 ml ethanol + 5 mg carmustine (25 mg/ml), 1 cat
[5] = 0.4 ml ethanol + 5 mg carmustine (12.5 mg/ml), 1 cat
[6] = Group VI: carmustine 3.3 mg/ml in absolute ethanol, 100% tumor volume
[7] = all animals, 14 days after injection
[8] = carmustine 5 mg/ml ethanol, 50% of prostate volume, prostate volume 8.42, 14 days
[9] = carmustine 5 mg/ml ethanol, 50% of prostate volume, prostate volume 9.8, 14 days
[10] = carmustine 12.5 mg/ml ethanol, 50% of prostate volume, prostate volume 4.36, 14 days
[11] = carmustine 12.5 mg/ml ethanol, 50% of prostate volume, prostate volume 20.16, 14 days
[12] = carmustine 18 mg/ml ethanol, 50% of prostate volume, prostate volume 27.75, 14 days
[13] = carmustine 18 mg/ml ethanol, 50% of prostate volume, prostate volume 37.2, 14 days
[14] = carmustine 25 mg/ml ethanol, 50% of prostate volume, prostate volume 22.14, 14 days

O=NN(CCCl)C(=O)NCCCl [Carmustine, carmustine]
Clinical Signs (normal feline brain; [1]): NPND | Gross Findings: lesion size (normal feline brain; [1]): 2-3 mm | Survival (normal feline brain; 0.05 ml ethanol + 5 mg carmustine (100 mg/ml), 1 cat, sacrifice 2 weeks): Term | Clinical Signs (normal feline brain; 0.05 ml ethanol + 10 mg carmustine (200 mg/ml), 1 cat): Circles to left, otherwise | Survival (normal feline brain; 0.05 ml ethanol + 10 mg carmustine (200 mg/ml), 1 cat, sacrifice 2 weeks): Term | Clinical Signs (normal feline brain; [2]): Died | Gross Findings: lesion size (diameter) (normal feline brain; [2]): 1-1.5 cm | Survival (normal feline brain; [2]): 3 days | volume of lesion (normal feline brain; 0.05 ml ethanol containing 20 mg (400 mg/ml) carmustine): 1.0 to 1.77 mL | volume of lesions (normal feline brain; 0.05 ml ethanol containing 10 and 20 mg (200 and 400 mg/ml) carmustine): 1.0 to 1.77 mL | Clinical Signs (normal feline brain; [3]): NPND | Gross Findings: lesion size (normal feline brain; [3]): 4-5 mm | Survival (normal feline brain; 0.1 ml ethanol + 10 mg carmustine (100 mg/ml), 1 cat, sacrifice 2 weeks): Term | Clinical Signs (normal feline brain; [4]): NPND | Gross Findings: lesion size (normal feline brain; [4]): 4 mm | Survival (normal feline brain; 0.2 ml ethanol + 5 mg carmustine (25 mg/ml), 1 cat, sacrifice 2 weeks): Term | Clinical Signs (normal feline brain; [5]): NPND | Gross Findings: lesion size (normal feline brain; [5]): 2-3 mm | Survival (normal feline brain; 0.4 ml ethanol + 5 mg carmustine (12.5 mg/ml), 1 cat, sacrifice 2 weeks): Term | toxic effects on the tissue (normal feline brain; 0.4 ml ethanol containing 5 mg (12.5 mg/ml) carmustine): no toxic effects | effect on post-mitotic (non-dividing) cells of normal brain (normal feline brain; 50 μl ethanol, carmustine 200 or 400 mg/ml): destruction of a relatively large volume of tissue; also recorded: novel activity of carmustine against non-dividing cells | toxic effects in normal brain tissue (normal feline brain; solutions containing carmustine up to 100 mg/ml): no toxic effects | selective effect on tumor cells (Walker 256 tumors; 100% ethanol and 3.3 mg/ml carmustine): selectively kill tumor cells | Complete Regressors/Total (Walker 256 tumors; [6]): 4/5 | local findings in the area of the tumor (Walker 256 tumors; [6]): no evidence of scar, hair loss or residual redness | Mean Days to Tumor Size 5000 mm^3 after treatment (Walker 256 tumors; Group VI: carmustine 3.3 mg/ml in absolute ethanol, 100% tumor volume, 2 animals): 29.5 days | Tumor Free at Time of Death (Walker 256 tumors; [6]): 3 | Tumor Free at Time of Death (Walker 256 tumors; Group VI: carmustine 3.3 mg/ml in absolute ethanol, 100% tumor volume, listed as carmustine): three | relation of carmustine concentration to volume of tissue affected (normal canine prostate; 2-25 mg/ml carmustine in dehydrated ethanol, 14 days): highest concentrations of carmustine were associated with the largest volumes of tissue affected | rectal injuries (normal canine prostate; all animals): no rectal injuries | findings in prostatic parenchyma (TRUS and step sections) (normal canine prostate; [7]): hemorrhagic and coagulative necrosis | findings in the urethra (normal canine prostate; [7]): submucosal hemorrhage, mucosal erosion and inflammation | Periprostatic Tissue Involvement (normal canine prostate; carmustine 5 mg/ml ethanol, 50% of prostate volume, prostate volume 8.42): Marked fat necrosis | Volume Affected Left (normal canine prostate; [8]): 0.68 cc^3 | Volume Affected PU (periurethral) (normal canine prostate; [8]): 0 cc^3 | Volume Affected Right (normal canine prostate; [8]): 1.73 cc^3 | Periprostatic Tissue Involvement (normal canine prostate; carmustine 5 mg/ml ethanol, 50% of prostate volume, prostate volume 9.8): Cystic necrosis R | Volume Affected Left (normal canine prostate; [9]): 1.61 cc^3 | Volume Affected PU (periurethral) (normal canine prostate; [9]): 2.51 cc^3 | Volume Affected Right (normal canine prostate; [9]): 0.85 cc^3 | Periprostatic Tissue Involvement (normal canine prostate; carmustine 12.5 mg/ml ethanol, 50% of prostate volume, prostate volume 4.36): Moderate fat necrosis | Volume Affected PU (periurethral) (normal canine prostate; [10]): 0.62 cc^3 | Volume Affected left + right (normal canine prostate; [10]): 1.8 cc^3 | Periprostatic Tissue Involvement (normal canine prostate; carmustine 12.5 mg/ml ethanol, 50% of prostate volume, prostate volume 20.16): Minimal fat necrosis | Volume Affected Left (normal canine prostate; [11]): 1.8 cc^3 | Volume Affected PU (periurethral) (normal canine prostate; [11]): 0 cc^3 | Volume Affected Right (normal canine prostate; [11]): 1.4 cc^3 | Periprostatic Tissue Involvement (normal canine prostate; carmustine 18 mg/ml ethanol, 50% of prostate volume, prostate volume 27.75): Marked fat necrosis | Volume Affected Left (normal canine prostate; [12]): 8.35 cc^3 | Volume Affected PU (periurethral) (normal canine prostate; [12]): 1.2 cc^3 | Volume Affected Right (normal canine prostate; [12]): 12.31 cc^3 | Periprostatic Tissue Involvement (normal canine prostate; carmustine 18 mg/ml ethanol, 50% of prostate volume, prostate volume 37.2): Marked fat necrosis | Volume Affected Left (normal canine prostate; [13]): 11.76 cc^3 | Volume Affected PU (periurethral) (normal canine prostate; [13]): 3.84 cc^3 | Volume Affected Right (normal canine prostate; [13]): 9.73 cc^3 | Periprostatic Tissue Involvement (normal canine prostate; carmustine 25 mg/ml ethanol, 50% of prostate volume, prostate volume 22.14): Mild fat necrosis | Volume Affected Left (normal canine prostate; [14]): 7.5 cc^3 | Volume Affected PU (periurethral) (normal canine prostate; [14]): 0 cc^3 | Volume Affected Right (normal canine prostate; [14]): 4.8 cc^3 | Periprostatic Tissue Involvement (normal canine prostate; carmustine 25 mg/ml ethanol, 50% of prostate volume, prostate volume 32.64): Large pelvic abscess | Volume Affected left + right + periurethral (normal canine prostate; carmustine 25 mg/ml ethanol, 50% of prostate volume, prostate volume 32.64, 14 days): 32.64** cc^3
